From PMC6472337, “L amino acid transporter structure and molecular bases for the asymmetry of substrate interaction” (Nature Communications, 2019)
Substitutions are numbered along the chain they refer to. “And” between values parts separate entries of the source, which are not always exact repeats. Equal values may be shown once. Read-outs that look alike come from different tables or passages of the source.

What was measured:
[1] = molecular target: T1, hAsc-1 S325A mutant (Homo sapiens, UniProt Q9NS82, S325A); assay: [3H]L-alanine uptake in HeLa cells, hAsc-1 S325A; format: cell-based; conditions: WT = 100, n=1-3 and mean
T1 construct: expressed in transfected cells; host or cells: HeLa
T1 sequence (Q9NS82 1-523 S325A): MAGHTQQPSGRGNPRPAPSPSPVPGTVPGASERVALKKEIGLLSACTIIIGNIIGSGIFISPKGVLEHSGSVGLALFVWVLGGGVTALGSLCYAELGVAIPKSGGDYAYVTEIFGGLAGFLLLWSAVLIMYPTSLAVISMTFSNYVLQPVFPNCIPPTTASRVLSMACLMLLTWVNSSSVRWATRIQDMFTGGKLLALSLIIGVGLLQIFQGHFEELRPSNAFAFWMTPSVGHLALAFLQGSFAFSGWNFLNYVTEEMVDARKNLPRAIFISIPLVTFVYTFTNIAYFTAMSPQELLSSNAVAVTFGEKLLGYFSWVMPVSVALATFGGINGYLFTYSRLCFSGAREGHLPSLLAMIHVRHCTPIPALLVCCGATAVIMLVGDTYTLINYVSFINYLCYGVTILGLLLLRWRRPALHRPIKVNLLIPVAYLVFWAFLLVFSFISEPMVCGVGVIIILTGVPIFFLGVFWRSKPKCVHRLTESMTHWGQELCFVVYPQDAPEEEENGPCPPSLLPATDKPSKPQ
T1 sequence (P08195 1-529 partner): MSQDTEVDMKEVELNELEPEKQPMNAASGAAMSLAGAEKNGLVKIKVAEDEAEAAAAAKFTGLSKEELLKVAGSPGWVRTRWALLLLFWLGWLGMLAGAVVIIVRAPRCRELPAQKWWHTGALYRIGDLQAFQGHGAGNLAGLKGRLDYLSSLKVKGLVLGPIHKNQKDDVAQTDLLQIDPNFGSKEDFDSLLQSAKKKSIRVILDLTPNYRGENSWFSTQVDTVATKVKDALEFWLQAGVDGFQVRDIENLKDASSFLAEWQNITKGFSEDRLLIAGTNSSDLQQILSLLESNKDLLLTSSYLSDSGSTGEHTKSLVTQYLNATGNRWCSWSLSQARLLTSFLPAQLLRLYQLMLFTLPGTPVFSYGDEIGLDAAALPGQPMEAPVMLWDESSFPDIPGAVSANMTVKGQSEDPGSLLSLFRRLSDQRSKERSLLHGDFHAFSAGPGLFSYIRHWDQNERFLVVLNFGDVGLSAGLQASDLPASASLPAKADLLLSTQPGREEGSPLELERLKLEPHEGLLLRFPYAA
Excerpt: (§1) All mutations were verified by sequencing.

[2] = molecular target: T2, hAsc-1 Y280F mutant (Homo sapiens, UniProt Q9NS82, Y280F); assay: [3H]L-alanine uptake in HeLa cells, hAsc-1 Y280F; format: cell-based; conditions: WT = 100, n=1-3 and mean
T2 construct: expressed in transfected cells; host or cells: HeLa
T2 sequence (Q9NS82 1-523 Y280F): T1 sequence (Q9NS82 1-523 S325A) with Y280F, A325S
T2 sequence (P08195 1-529 partner): T1 sequence (P08195 1-529 partner)
Excerpt: as §1

[3] = molecular target: wild-type BasC; assay: Thermostability-based L-alanine binding assay (GFP-fused protein, SEC); parameters: species or system Carnobacterium sp AT7; conditions: for Kd Wild-type binding curve, normalized signal: n=1-3
Protocol: GFP-fused BasC proteins purified in DM were incubated for 10 min at 4–60 °C (Y236F and K154A mutants) or 4–70 °C (wild-type). In total, 200 µl of 2 mg ml^−1 protein was used for each temperature point. Protein was then centrifuged at 186,000 × g for 30 min. […] Fractions (200 µl) were collected and measured for GFP fluorescence. The peak heights were normalized to those of samples incubated at 4 °C and were fit to the Hill equation using the GraphPad Prism 4 program (GraphPad Software Inc., San Diego, CA). Melting temperatures (Tm) were determined by fitting the curves to a sigmoidal dose-response equation, as previously described.
BasC-GFP proteins were then incubated at the calculated Tm for 10 min and centrifuged at 186,000 × g for 30 min. […] Binding affinities were determined by fitting the curves to a sigmoidal dose-response equation.

## C[C@H](N)C(=O)O [L-alanine]
[1]
  transport of 10 µM [3H]L-alanine normalized to wild-type: 135.06 and 126.01 and 130.11
[1]; mean
  transport of 10 µM [3H]L-alanine normalized to wild-type: 130.39
[2]
  transport of 10 µM [3H]L-alanine normalized to wild-type: 133.65 and 128.34 and 128.02 and 123.34
[3]; WT BasC, incubated at Tm, L-alanine 0–200 mM, read-out: KD (apparent, thermostability-based)
  Kd: 34.5 ± 2.1 mM
[3]; [L-Alanine] 0.36 mM
  Kd Wild-type binding curve, normalized signal: 4.340 and 4.304 and 4.417
[3]; [L-Alanine] 1.50 mM
  Kd Wild-type binding curve, normalized signal: 6.609 and 6.614 and 8.554
[3]; [L-Alanine] 3.13 mM
  Kd Wild-type binding curve, normalized signal: 10.226 and 10.310 and 9.554
[3]; [L-Alanine] 6.25 mM
  Kd Wild-type binding curve, normalized signal: 16.111 and 16.814 and 19.554
[3]; [L-Alanine] 12.50 mM
  Kd Wild-type binding curve, normalized signal: 30.546 and 30.584 and 35.221
[3]; [L-Alanine] 25 mM
  Kd Wild-type binding curve, normalized signal: 47.282 and 48.296 and 50.554
[3]; [L-Alanine] 50 mM
  Kd Wild-type binding curve, normalized signal: 70.152 and 71.030 and 72.225
[3]; [L-Alanine] 100 mM
  Kd Wild-type binding curve, normalized signal: 82.376 and 81.876 and 86.554
[3]; [L-Alanine] 150 mM
  Kd Wild-type binding curve, normalized signal: 97.076 and 84.776 and 95.225
[3]; [L-Alanine] 200 mM
  Kd Wild-type binding curve, normalized signal: 100.000
[3]; individual experiments n=1, n=2, n=3, read-out: Apparent Kd Wild type
  Kd: 35.9 mM and 35.4 mM and 32.2 mM
[3]; mean of n=3, read-out: Apparent Kd Wild type, mean
  Kd: 34.5 mM
